The numbers were not newly measured in patent US10857210B2, “Compositions and methods to promote wound healing” (Wayne State University, priority 2015, dated 2020), which cites them from elsewhere.

One data set concerns Tet promoter. Particulars: relative to tetracycline.

With `Cc1c2c(c(O)c3c(O)cccc13)C(=O)[C@]1(O)C(=O)C(C(N)=O)=C(O)[C@@H](N(C)C)[C@@H]1C2` [anhydrotetracycline], the solubility in water entry is “fully soluble in water”. Also, in the data set with Tet promoter, the “concentration that activates the Tet promoter, lower than with tetracycline” value is given as 2 logs.
